Laboratory results reported in patent US20240294542A1, “NLRP3 INFLAMMASOME INHIBITOR AND APPLICATION THEREOF” (TransThera Sciences (Nanjing), Inc., priority 2021, published 2024).

Tested on: NLRP3 inflammasomes
Experiment: Inhibitory activity against NLRP3 inflammasome in THP-1 cells (LPS/nigericin stimulation, IL-1β ELISA)
Assay type: cell-based
Conditions: PMA-differentiated THP-1 cells; LPS 500 ng/mL 3 h, compound 1 h, nigericin 10 μg/mL 30 min; human IL-1β in supernatant by Elisa; read-out: IC50 (nM), inhibitory activities against NLRP3 in THP-1 cells
Protocol: Test Samples: The compounds of the present invention prepared according to exemplary methods.
THP-1 is Immortalized Human Macrophage Cell Line
• Test instrument: microplate reader (made from PE)
• 1. […] Culture plate coating: 100 μL polylysine solution was added into a 96-well cell culture plate, and the reaction was carried out at 37° C. for 30 min. The solution was discarded, and PBS was washed twice for later use. • 3. […] The resulting mixture was uniformly mixed, and finally diluted by 1:1000 times, and the cells were placed in a carbon dioxide cell incubator at 37° C. and cultured for 1 h. • c. Nigericin was added to each well at a final concentration of 10 μg/mL, and the plate was placed in a carbon dioxide cell incubator at 37° C. and cultured for 30 min. • d. The media in wells were transferred to a new culture plate, and then the plate was centrifuged at 3000 rpm for 5 min. Then the supernatant was transferred to a new 96-well plate. • e. The collected cell culture supernatant samples were tested for the content of human IL-1β by using a commercial Elisa kit, as specified in the instructions.

SMILES | IC50 [nM]
Cc1ccc(-c2nnc(N[C@@H]3CCCN(C)C3)c3cccc(F)c23)c(O)c1 [Compound 6, (R)-2-(8-fluoro-4-((1-methylpiperidin-3-yl)amino)phthalazin-1-yl)-5-methylphenol] | 11
CN1CCC[C@@H](Nc2nnc(-c3ccc(C4CC4)cc3O)c3ccc(C#N)cc23)C1 [Compound 89, (R)-1-(4-cyclopropyl-2-hydroxyphenyl)-4-((1-methylpiperidin-3-yl)amino)phthalazine-6-carbonitrile] | 7
Cc1ccc(-c2nnc(N[C@@H]3CCCN(C)C3)c3ccsc23)c(O)c1 [Compound 48, (R)-5-methyl-2-(4-((1-methylpiperidin-3-yl)amino)thieno[2,3-d]pyridazin-7-yl)phenol] | 2
Cc1ccc(-c2nnc(N[C@@H]3CCCN(C)C3)c3c(F)cccc23)c(O)c1 [Compound 9, (R)-2-(5-fluoro-4-((1-methylpiperidin-3-yl)amino)phthalazin-1-yl)-5-methylphenol] | 3
CC(C)(O)CN1CCC[C@@H](Nc2nnc(-c3ccc(C#N)cc3O)c3ccccc23)C1 [Compound 126] | 5
Cc1ccc(-c2nnc(N[C@@H]3CCCN(C)C3)c3c(Br)cccc23)c(O)c1 [Compound 34, (R)-2-(5-bromo-4-((1-methylpiperidin-3-yl)amino)phthalazin-1-yl)-5-methylphenol] | 8
CN1CCC[C@@H](Nc2nnc(-c3ccc(C#N)cc3O)c3sccc23)C1 [Compound 78, (R)-3-hydroxy-4-(4-((1-methylpiperidin-3-yl)amino)thieno[2,3-d]pyridazin-7-yl)benzonitrile] | 2
C[C@]1(O)C[C@@H](Nc2nnc(-c3ccc(C#N)cc3O)c3ccccc23)C1 [Compound 116, 3-hydroxy-4-(4-(((cis)-3-hydroxy-3-methylcyclobutyl)amino)phthalazin-1-yl)benzonitrile] | 21
Cc1ccc(-c2nnc(N[C@@H]3CCCN(C)C3)c3ccc(C)cc23)c(O)c1 [Compound 3, (R)-5-methyl-2-(7-methyl-4-((1-methylpiperidin-3-yl)amino)phthalazin-1-yl)phenol] | 24
N#Cc1ccc(-c2nnc(N[C@@H]3CCCN(C4CCOCC4)C3)c3ccccc23)c(O)c1 [Compound 124, (R)-3-hydroxy-4-(4-((1-(tetrahydro-2H-pyran-4-yl)piperidin-3-yl)amino)phthalazin-1-yl)benzonitrile] | 5
CN1CCC[C@@H](Nc2nnc(-c3ccc(C#N)cc3O)c3ccsc23)C1 [Compound 77, (R)-3-hydroxy-4-(7-((1-methylpiperidin-3-yl)amino)thieno[2,3-d]pyridazin-4-yl)benzonitrile] | 2
CN1CCC[C@@H](Nc2nnc(-c3ccc(F)c(F)c3O)c3c2CCCC3)C1 [Compound 31a, (R)-2,3-difluoro-6-(4-((1-methylpiperidin-3-yl)amino)-5,6,7,8-tetrahydrophthalazin-1-yl)phenol] | 6
Cc1ccc(-c2nnc(N[C@@H]3CCCN(C)C3)c3cc(Cl)ccc23)c(O)c1 [Compound 12, (R)-2-(6-chloro-4-((1-methylpiperidin-3-yl)amino)phthalazin-1-yl)-5-methylphenol] | 4
CN1CCC[C@@H](Nc2nnc(-c3ccc(Cl)cc3O)c3ccccc23)C1 [Compound 101, (R)-5-chloro-2-(4-((1-methylpiperidin-3-yl)amino)phthalazin-1-yl)phenol] | 5
CN1CCC[C@@H](Nc2nnc(-c3ccc(C(F)F)cc3O)c3c2CCCC3)C1 [Compound 15a, (R)-5-(difluoromethyl)-2-(4-((1-methylpiperidin-3-yl)amino)-5,6,7,8-tetrahydrophthalazin-1-yl)phenol] | 2
Cc1ccc2c(N[C@@H]3CCCN(C)C3)nnc(-c3ccc(C#N)cc3O)c2c1 [Compound 54, (R)-3-hydroxy-4-(7-methyl-4-((1-methylpiperidin-3-yl)amino)phthalazin-1-yl)benzonitrile] | 13
Cc1ccc(-c2nnc(N[C@@H]3CCCN(C)C3)c3cc(C)ccc23)c(O)c1 [Compound 4, (R)-5-methyl-2-(6-methyl-4-((1-methylpiperidin-3-yl)amino)phthalazin-1-yl)phenol] | 9
COc1ccc2c(-c3ccc(C)cc3O)nnc(N[C@@H]3CCCN(C)C3)c2c1 [Compound 16, (R)-2-(6-methoxy-4-((1-methylpiperidin-3-yl)amino)phthalazin-1-yl)-5-methylphenol] | 7
Cc1cc(C#N)ccc1-c1nnc(N[C@@H]2CCCN(C)C2)c2ccccc12 [Compound 118, (R)-3-methyl-4-(4-((1-methylpiperidin-3-yl)amino)phthalazin-1-yl)benzonitrile] | 23
CN1CCC[C@@H](Nc2nnc(-c3ccc(C4CC4)cc3O)c3ccncc23)C1 [Compound 95, (R)-5-cyclopropyl-2-(4-((1-methylpiperidin-3-yl)amino)pyrido[3,4-d]pyridazin-1-yl)phenol] | 1
Cc1ccc2c(-c3ccc(Br)cc3O)nnc(N[C@@H]3CCCN(C)C3)c2c1 [Compound 88, (R)-5-bromo-2-(6-methyl-4-((1-methylpiperidin-3-yl)amino)phthalazin-1-yl)phenol] | 1
